Here are results for five substances from US6037463A, “Enzymatic RNA molecules that cleave mutant N-RAS” (priority 1996, dated 2000).

For series [1], the system named is in vitro transcribed wild type N-ras mRNA. Nature of the series: Kinetics with in vitro transcribed RNA (single-turnover), wild type. The series is classed as biochemical. To be noted: for cleavage of wild type N-ras mRNA: ribozymes directed against mutant mRNA. An excerpt: (§1) In a further investigation, RNA containing the mutant or wild type N-ras sequence from transcription initiation site to termination site was synthesized by in vitro transcription. In order to achieve efficient mRNA cleavage, the target sequence of the substrate (NUX-triplet, N=A,G,C,U; X=C,A,U) is not allowed to be double-stranded or part of a stable hairpin. The in vitro transcribed RNA served as substrate for five ribozymes mentioned above. The catalytic efficiency was examined under "single-turnover" conditions to detect the splice products.
(§2) For in vitro transcription, pMS5-NRAS, pMS5A-NRAS and pMS5B-NRAS were linearized by EcoRI digestion, phenol-extracted and ethanol-precipitated. Transcription was carried out in a 100 μl mixture containing 50 ng/μl linearized plasmid DNA, 10 mM DTT, 40 mM Tris-Cl (pH 7.5), 50 mM NaCl, 8 mM MgCl2, 2 mM spermidine, 500 μM rNTP's, 0.8 U/μl RNAse-lnhibitor, 2 μCi/μl [α-^32 P]-ATP and 2.5 U/μl T7 RNA Polymerase. A one-hour incubation at 37° C. was followed by the addition of 25 Units of DNAsel, and the mixture was incubated for an additional 30 min at 37° C. After subsequent phenol extraction, the aqueous phase was transferred into a CENTRICON-100 tube and centrifuged at 3,400 U/min for 30 min. The RNA-solution was checked for homogeneity by UV absorption and 6% analytical PAGE (8 M urea). The solution was stored frozen at -20° C.
(§3) The cleavage efficiency under "single-turnover" conditions was determined in a volume of 10 μl using 20-1200 nM ribozyme, 50 mM Tris-Cl (pH 7.5) and 10 mM MgCl2. The reaction was initiated by addition of RNA substrate to a final concentration of 10 nM substrate over 1 h at 37° C. The reaction was stopped by mixing 8 μl of stop solution to each reaction. The reaction was analyzed on 6% denaturing polyacrylamide gels and scanned on a Molecular Dynamics Phosphor Imager. The single turnover kcat /Km values were determined as described by Heidenreich et al., J. Biol. Chem. 267:1904 (1992).

The subject of series [2] is synthetic oligoribonucleotide substrate of 15 nucleotides, wild-type N-ras mRNA (codon 64, 89 or 103). Nature of the series: Kinetics with synthetic substrates (multiple turnover), ribozymes against wild-type N-ras. To be noted: for Km / kcat: Table IA, Michaelis-Menten conditions; for kcat: 37° C., 10 mM MgCl2. The series is classed as biochemical. As to the method: (§4) In one investigation, short synthetic oligoribonucleotides of 15 nucleotides chain length served as substrates. Cleavage kinetics of all ribozymes were carried out under Michaelis-Menten conditions. […] Ribozymes RE990 or RE1035 against the wild type mRNA as well as their substrate complexes on the other hand reveal Tm values of approximately 52° C.
(§5) Kinetic constants Km and kcat were determined from Eadie-Hofstee plots carried out with 5'-^32 P-labeled substrate. The RNA substrate was labeled by reaction with T4 polynucleotide kinase and [γ-^32P]-ATP. 5'-end labeled substrate was purified from [γ-^32 P]-ATP with CENTRICON-3 tubes. Ribozyme and substrate were heated separately for 1 min at 75° C. in 50 mM Tris-Cl (pH 7.5). After cooling to 37° C. for 5 min, 100 mM MgCl2 were added to a final concentration of 10 mM, and the solution was incubated for an additional 5 min at 37° C. Multiple turnover reactions were carried out in a volume of 100 μl with concentrations of substrate between 20-500 nM and ribozyme concentrations from 2 to 5 nM in 50 mM Tris-Cl (pH 7.5) and 10 mM MgCl2 at 37° C. Reactions were initiated by addition of ribozyme. The reaction was stopped by mixing the ribozymes with an equal volume of stop solution (8 M urea, 25 mM EDTA). The cleavage reactions were analyzed on 20% denaturing polyacrylamide gels (8 M urea) and scanned on a Molecular Dynamic Phosphorimaging system.

For series [3], the system named is synthetic substrate, wild type N-ras mRNA. Nature of the series: Melting curves (Tm) of ribozyme-substrate complexes, wild type. The series is classed as binding. To be noted: ribozyme-substrate complex. As to the method:
as §4
(§6) UV temperature curves were measured at 260 nm using a Varian Cary-1 UV/VIS-spectrophotometer. The target was prepared by dissolving the ribozyme in a buffer containing 50 mM Tris-Cl (pH 7.5) and 10 mM MgCl2. The sample was transferred in a cuvette with a 10 mm path length. The ribozyme was denatured at 80° C. for 5 min, and subsequently the substrate RNA and substrate DNA were added and the whole mixture was renatured at 1° C./min. Melting curves at 260 nm were performed by heating the solution in the cuvette at 0.75° C./min and acquiring absorbance data every 0.5° C. step until 80° C. was reached. The Tm value and thermodynamic parameters of transition were obtained by fitting data of a two transition state model with the GraFit version 2.0 from Sigma Chemicals Co. software using the method of Marky and Breslauer, Biopolymers 26:1601 (1987).

The test system of series [4] is N-ras transformed NIH3T3 cells (mutation in codon 13, clones 2 and 4). Nature of the series: Colony-forming soft agar assay, retrovirally mediated ribozyme. The series is classed as cell-based. To be noted: beyond the effect of the retroviral vector alone. The protocol:
The cells of the constitutively N-ras expressing clones 2 and 4 (mutation in codon 13) were subcultured in soft agar using the colony-forming agar assay of Cowley et al., Cell 77:841 (1994). The colony-forming agar assay is a semisolid method in which cells are suspended in a 0.3% agar upper layer and plated out over a 0.5% agar lower layer in Petri dishes. The lower layer was prepared by heating a 2.5% solution of agar in deionized water. After cooling the agar to 45° C. in a water bath, an agar mix of 0.5% agar was prepared by combining 25 ml of 1×DMEM medium, 10 ml of 2.5% agar, 10 ml of 2×DMEM medium, and 5 ml of fetal calf serum. One milliliter samples of the agar mix were pipetted into 35 mm Petri culture dishes and stored at 4° C. for 30 minutes.
The upper layer was prepared by adding 0.2 ml of agar mix to 1 ml of about 5×10^4 cells/ml suspension, and adding DMEM medium to a total volume of 1.7 ml. One milliliter samples were pipette onto bottom agar layers and incubated for 14-21 days at 37° C. […]
The soft agar cultures were incubated for […] at 37° C. and 5% CO2. The reduction in transformed N-ras NIH3T3 cells was analyzed by counting cell clusters under a microscope. The soft agar preparations were set up in quadruplicate for each construct and the mean values were calculated, as presented in Table VII.

Series [5] deals with in vitro transcribed mutant N-ras mRNA (codon 13). Nature of the series: Kinetics with in vitro transcribed RNA (single-turnover), mutant. The series is classed as biochemical.
Text: as §1, §2, §3

The test system of series [6] is synthetic substrate, mutant N-ras mRNA (codon 13). Nature of the series: Melting curves (Tm) of ribozyme-substrate complexes, mutant. In kind it is binding. To be noted: ribozyme-substrate complex. The protocol:
as §4, §6

Series [7] deals with synthetic oligoribonucleotide substrate of 15 nucleotides, mutant N-ras mRNA (codon 13). Nature of the series: Kinetics with synthetic substrates (multiple turnover), ribozymes against mutant N-ras. The settings on record: Table IA, Michaelis-Menten conditions; for kcat: 37° C., 10 mM MgCl2. The series is classed as biochemical. The protocol: as §4, §5
The mark [8] stands for this setting: Table IIA, single-turnover, transcribed N-ras mRNA.
Setting [9] is: Table III, modified ribozymes, transcribed N-ras mRNA.
[10] abbreviates: Table IIB, single-turnover, transcribed RNA.

As a reminder, the Km is the concentration of substrate that gives half-maximal velocity. What is called kcat is the number of substrate molecules converted per active site and unit of time at saturation.

“RE1035: ribozyme against codon 103 of the wild-type N-ras mRNA, SEQ ID NO:16 (AGUCUUUCUGAUGAGCGUUAGCGAAACUCGCU; chemistry not given here)”: in series [1] (setting [8]), the Km was 0.425 µM and the kcat is 44 10^6 × s^-1. In series [2], the Km turned out to be 0.277 µM and the catalytic constant (kcat) is 0.013 s⁻¹. In series [3], the Tm result is “approximately 52 °C”.
Take “5'-CCAACACCUGAUGAGCGUUAGCGAAACCUGCU-3' (chemistry not given here)”: in series [1], the “cleavage of wild type N-ras mRNA” value is listed as “do not cleave”. In series [4], the “reversion of the malignant phenotype” value is given as “about 18%”. Besides, the Michaelis-Menten constant (Km) in series [5] (setting [8]) is 0.071 µM; in series [5] (setting [9]), 0.071 µM; in series [7], 0.082 µM. Besides, the results for the kcat in series [5] (setting [8]), in series [5] (setting [9]) and in series [7] were 266 10^6 × s^-1, 266 10^6 × s^-1 and 0.015 s⁻¹, respectively. For the same substance, in series [6], the Tm result was “approximately 48 °C”.
With “5'-UCCCAACCUGAUGAGCGUUAGCGAAACACCUG-3' (chemistry not given here)”, the “cleavage of wild type N-ras mRNA” value in series [1] is listed as “do not cleave”. Further, the Km was found to be 0.113 µM in series [5] (setting [8]), 0.113 µM in series [5] (setting [10]), 0.113 µM in series [5] (setting [9]) and 0.065 µM in series [7]. Also, the kcat was 137 10^6 × s^-1 in series [5] (setting [8]), 137 10^6 × s^-1 in series [5] (setting [9]) and 0.012 s⁻¹ in series [7]. Besides, the kreact in series [5] (setting [10]) is listed as 137 10^6 s^-1. In addition, in series [6], the Tm entry was “approximately 48 °C”.
“RE917: ribozyme against codon 64 of the wild-type N-ras mRNA, SEQ ID NO:14 (GGCACUGCUGAUGAGCGUUAGCUAAACUCUUC; chemistry not given here)”: the Km in series [1] (setting [8]) was determined as 0.063 µM; in series [1] (setting [10]), 0.063 µM; in series [1] (setting [9]), 0.063 µM; in series [2], 0.078 µM. Also, the kcat in series [1] (setting [8]) was 59 10^6 × s^-1; in series [1] (setting [9]) it was 59 10^6 × s^-1; in series [2], 0.013 s⁻¹. The kreact in series [1] (setting [10]) is given as 59 10^6 s^-1.
Consider “RE990: ribozyme against codon 89 of the wild-type N-ras mRNA, SEQ ID NO:15 (CGCAAAUCUGAUGAGCGUUAGCGAAACUUGCU; chemistry not given here)”, for which, in series [1] (setting [8]), the Km worked out at 0.234 µM and the kcat is on record as 72 10^6 × s^-1. Besides, in series [2], the “kcat /Km” value was “much less catalytic efficiency”, the Km is 0.404 µM and the kcat came out at 0.004 s⁻¹. The Tm entry in series [3] was “approximately 52 °C”.
